Laboratory results taken from publication PMC11356900, “Synthesis, Structural Properties and Biological Activities of Novel Hydrazones of 2-, 3-, 4-Iodobenzoic Acid” (Molecules, 2024).
Converted amounts (≈) assume the structure as drawn.

Tests used:
[1] = system: Proteus mirabilis ATCC 12453; assay: Broth microdilution MIC/MBC; settings: ATCC12453
[2] = system: Salmonella typhimurium ATCC 14028; assay: Broth microdilution MIC/MBC
[3] = system: Micrococcus luteus ATCC 10240; assay: Broth microdilution MIC/MBC; settings: Micrococcus luteus, ATCC10240
[4] = system: T47D cell line; assay: MTT cytotoxicity assay; format: cell-based
Protocol: (§1) Among all the newly synthesized compounds, four compounds designated as: 14, 20, 21 and 27 were selected for further testing of their cytotoxic properties at the doses of 10, 25, 50, 75 and 100 µM. The cytotoxic properties of the above compounds were tested on the cancer cell lines, i.e., A549 (ECACC 86012804) (non-small-cell lung cancer), T47D (ECACC 85102201) (breast cancer), HeLa (ATCC® CCL-2™) (cervical cancer) and normal line L929 (NCTC clone 929, ATCC® CCL-1™) (mouse fibroblasts) using the MTT test for 24- and 48 h cultures.
(§2) A549 (ECACC 86012804) (non-small-cell lung cancer) and T47D (ECACC 85102201) (breast cancer) were obtained from ECACC and propagated in Dulbecco’s Minimal Essential Medium, supplemented with 2 mM of glutamine, antibiotics ([…] streptomycin, 1% of 100 U/L penicillin) and 10% Fetal Bovine Serum. HeLa (ATCC® CCL-2™) (cervical cancer) and L929 (NCTC clone 929, ATCC® CCL-1™) (mouse fibroblasts) cell lines were obtained from ATCC and propagated in the Eagle Minimal Essential Medium supplemented with antibiotics ([…] streptomycin, 1% of 100 U/L penicillin) and with 10% and 5% FBS, respectively. The cell line was routinely grown in 75 cm^2 tissue culture flasks and kept in an incubator (humidified atmosphere of 5% CO2 at 37 °C). All examined cell lines were tested against mycoplasma contamination with microbiological assays.
(§3) The cell viability of tested compounds (14, 20, 21 and 27) was assessed by the MTT assay. In brief, the exponentially growing cells were plated in 100 μL/well in 96-well plates. After 24 h culturing, the cells were treated with different concentrations of compounds (range 10–100 μM). After 24 and 48 h of incubation, 10 μL of 5 mg/mL MTT was added to each well and the plates were incubated at 37 °C for additional 4 h. The medium was subsequently removed, the purple-colored precipitates of formazan were dissolved in 100 μL of DMSO. The color absorbance was recorded at 570 nm using a BioTek model EPOCH ELISA plate reader. All experiments were performed in triplicate. The absorbance values were in the range of linearity of the Lambert–Beer law.

[5] = system: A549 cell line; assay: MTT cytotoxicity assay; format: cell-based
Protocol: as §1, §2, §3

[6] = system: HeLa cell line; assay: MTT cytotoxicity assay; format: cell-based; settings: for cytotoxicity: 24 h culture
Protocol: as §1, §2, §3

O=C(N/N=C/c1cc(Cl)cc(I)c1O)c1ccc(I)cc1 [Compound 27, N-[(5-chloro-2-hydroxy-3-iodophenyl)methylidene]-4-iodobenzohydrazide]
MBC [1]: 1000 µg/mL (≈ 1900 µM) | MBC/MIC [1]: 2 | MIC [1]: 500 µg/mL (≈ 950 µM) | MBC ([2]; Salmonella enterica): 1000 µg/mL (≈ 1900 µM) | MIC ([2]; Salmonella enterica): 500 µg/mL (≈ 950 µM) | MBC/MIC ([2]; Salmonella typhimurium ATCC 14028): 2 | MBC [3]: 250 µg/mL (≈ 475 µM) | MIC [3]: 125 µg/mL (≈ 237 µM) | cell proliferation ([4]; 24h, 10 µM, Repeat No 1): 96% | cell proliferation ([4]; 24h, 10 µM, Repeat No 2): 91% | cell proliferation ([4]; 24h, 25 µM, Repeat No 1): 91% | cell proliferation ([4]; 24h, 25 µM, Repeat No 2): 82% | cell proliferation ([4]; 24h, 50 µM, Repeat No 1): 83% | cell proliferation ([4]; 24h, 50 µM, Repeat No 2): 79% | cell proliferation ([4]; 24h, 75 µM, Repeat No 1): 84% | cell proliferation ([4]; 24h, 75 µM, Repeat No 2): 87% | cell proliferation ([4]; 24h, 100 µM, Repeat No 1): 86% | cell proliferation ([4]; 24h, 100 µM, Repeat No 2): 91% | cell proliferation ([4]; 48h, 10 µM, Repeat No 1): 82% | cell proliferation ([4]; 48h, 10 µM, Repeat No 2): 75% | cell proliferation ([4]; 48h, 25 µM, Repeat No 1): 88% | cell proliferation ([4]; 48h, 25 µM, Repeat No 2): 84% | cell proliferation ([4]; 48h, 50 µM, Repeat No 1): 81% | cell proliferation ([4]; 48h, 50 µM, Repeat No 2): 80% | cell proliferation ([4]; 48h, 75 µM, Repeat No 1): 79% | cell proliferation ([4]; 48h, 75 µM, Repeat No 2): 72% | cell proliferation ([4]; 48h, 100 µM, Repeat No 1): 83% | cell proliferation ([4]; 48h, 100 µM, Repeat No 2): 81% | cell proliferation ([5]; A549, 24h, 10 µM, Repeat No 1): 95% | cell proliferation ([5]; A549, 24h, 10 µM, Repeat No 2): 92% | cell proliferation ([5]; A549, 24h, 25 µM, Repeat No 1): 97% | cell proliferation ([5]; A549, 24h, 25 µM, Repeat No 2): 89% | cell proliferation ([5]; A549, 24h, 50 µM, Repeat No 1): 94% | cell proliferation ([5]; A549, 24h, 50 µM, Repeat No 2): 87% | cell proliferation ([5]; A549, 24h, 75 µM, Repeat No 1): 87% | cell proliferation ([5]; A549, 24h, 75 µM, Repeat No 2): 92% | cell proliferation ([5]; A549, 24h, 100 µM, Repeat No 1): 109% | cell proliferation ([5]; A549, 24h, 100 µM, Repeat No 2): 103% | effect on proliferation in words ([5]; A549, 24 h culture, dose of 100 µM): increase in the proliferation of cancer cells | cell proliferation ([5]; A549, 48h, 10 µM, Repeat No 1): 84% | cell proliferation ([5]; A549, 48h, 10 µM, Repeat No 2): 87% | cell proliferation ([5]; A549, 48h, 25 µM, Repeat No 1): 87% | cell proliferation ([5]; A549, 48h, 25 µM, Repeat No 2): 82% | cell proliferation ([5]; A549, 48h, 50 µM, Repeat No 1): 88% | cell proliferation ([5]; A549, 48h, 50 µM, Repeat No 2): 89% | cell proliferation ([5]; A549, 48h, 75 µM, Repeat No 1): 91% | cell proliferation ([5]; A549, 48h, 75 µM, Repeat No 2): 87% | cell proliferation ([5]; A549, 48h, 100 µM, Repeat No 1): 98% | cell proliferation ([5]; A549, 48h, 100 µM, Repeat No 2): 95% | cell proliferation ([6]; 24h, 10 µM, Repeat No 1): 74% | cell proliferation ([6]; 24h, 10 µM, Repeat No 2): 83% | cell proliferation ([6]; 24h, 25 µM, Repeat No 1): 69% | cell proliferation ([6]; 24h, 25 µM, Repeat No 2): 73% | cell proliferation ([6]; 24h, 50 µM, Repeat No 1): 61% | cell proliferation ([6]; 24h, 50 µM, Repeat No 2): 67% | cell proliferation ([6]; 24h, 75 µM, Repeat No 1): 72% | cell proliferation ([6]; 24h, 75 µM, Repeat No 2): 69% | cell proliferation ([6]; 24h, 100 µM, Repeat No 1): 63% | cell proliferation ([6]; 24h, 100 µM, Repeat No 2): 59% | cytotoxicity ([6]; dose of 50 µM): 37% | cytotoxicity ([6]; dose of 100 µM): 41% | cell proliferation ([6]; 48h, 10 µM, Repeat No 1): 77% | cell proliferation ([6]; 48h, 10 µM, Repeat No 2): 82% | cell proliferation ([6]; 48h, 25 µM, Repeat No 1): 82% | cell proliferation ([6]; 48h, 25 µM, Repeat No 2): 71% | cell proliferation ([6]; 48h, 50 µM, Repeat No 1): 61% | cell proliferation ([6]; 48h, 50 µM, Repeat No 2): 49% | cell proliferation ([6]; 48h, 75 µM, Repeat No 1): 51% | cell proliferation ([6]; 48h, 75 µM, Repeat No 2): 43% | cell proliferation ([6]; 48h, 100 µM, Repeat No 1): 63% | cell proliferation ([6]; 48h, 100 µM, Repeat No 2): 57%

O=C(N/N=C/c1cc(I)cc(I)c1O)c1ccccc1I [Compound 14, N-[(3,5-diiodo-2-hydroxyphenyl)methylidene]-2-iodobenzohydrazide]
MBC [3]: 125 µg/mL (≈ 202 µM) | MIC [3]: 62.5 µg/mL (≈ 101 µM) | cell proliferation ([4]; 24h, 10 µM, Repeat No 1): 86% | cell proliferation ([4]; 24h, 10 µM, Repeat No 2): 89% | cell proliferation ([4]; 24h, 25 µM, Repeat No 1): 71% | cell proliferation ([4]; 24h, 25 µM, Repeat No 2): 74% | cell proliferation ([4]; 24h, 50 µM, Repeat No 1): 79% | cell proliferation ([4]; 24h, 50 µM, Repeat No 2): 75% | cell proliferation ([4]; 24h, 75 µM, Repeat No 1): 87% | cell proliferation ([4]; 24h, 75 µM, Repeat No 2): 80% | cell proliferation ([4]; 24h, 100 µM, Repeat No 1): 79% | cell proliferation ([4]; 24h, 100 µM, Repeat No 2): 73% | cell proliferation ([4]; 48h, 10 µM, Repeat No 1): 71% | cell proliferation ([4]; 48h, 10 µM, Repeat No 2): 79% | cell proliferation ([4]; 48h, 25 µM, Repeat No 1): 81% | cell proliferation ([4]; 48h, 25 µM, Repeat No 2): 79% | cell proliferation ([4]; 48h, 50 µM, Repeat No 1): 81% | cell proliferation ([4]; 48h, 50 µM, Repeat No 2): 79% | cell proliferation ([4]; 48h, 75 µM, Repeat No 1): 72% | cell proliferation ([4]; 48h, 75 µM, Repeat No 2): 69% | cell proliferation ([4]; 48h, 100 µM, Repeat No 1): 74% | cell proliferation ([4]; 48h, 100 µM, Repeat No 2): 69% | cell proliferation ([5]; A549, 24h, 10 µM, Repeat No 1): 86% | cell proliferation ([5]; A549, 24h, 10 µM, Repeat No 2): 77% | cell proliferation ([5]; A549, 24h, 25 µM, Repeat No 1): 103% | cell proliferation ([5]; A549, 24h, 25 µM, Repeat No 2): 98% | cell proliferation ([5]; A549, 24h, 50 µM, Repeat No 1): 89% | cell proliferation ([5]; A549, 24h, 50 µM, Repeat No 2): 84% | cell proliferation ([5]; A549, 24h, 75 µM, Repeat No 1): 87% | cell proliferation ([5]; A549, 24h, 75 µM, Repeat No 2): 89% | cell proliferation ([5]; A549, 24h, 100 µM, Repeat No 1): 82% | cell proliferation ([5]; A549, 24h, 100 µM, Repeat No 2): 74% | cell proliferation ([5]; A549, 48h, 10 µM, Repeat No 1): 93% | cell proliferation ([5]; A549, 48h, 10 µM, Repeat No 2): 79% | cell proliferation ([5]; A549, 48h, 25 µM, Repeat No 1): 87% | cell proliferation ([5]; A549, 48h, 25 µM, Repeat No 2): 91% | cell proliferation ([5]; A549, 48h, 50 µM, Repeat No 1): 91% | cell proliferation ([5]; A549, 48h, 50 µM, Repeat No 2): 83% | cell proliferation ([5]; A549, 48h, 75 µM, Repeat No 1): 89% | cell proliferation ([5]; A549, 48h, 75 µM, Repeat No 2): 89% | cell proliferation ([5]; A549, 48h, 100 µM, Repeat No 1): 90% | cell proliferation ([5]; A549, 48h, 100 µM, Repeat No 2): 96% | cell proliferation ([6]; 24h, 10 µM, Repeat No 1): 88% | cell proliferation ([6]; 24h, 10 µM, Repeat No 2): 81% | cell proliferation ([6]; 24h, 25 µM, Repeat No 1): 93% | cell proliferation ([6]; 24h, 25 µM, Repeat No 2): 91% | cell proliferation ([6]; 24h, 50 µM, Repeat No 1): 88% | cell proliferation ([6]; 24h, 50 µM, Repeat No 2): 82% | cell proliferation ([6]; 24h, 75 µM, Repeat No 1): 98% | cell proliferation ([6]; 24h, 75 µM, Repeat No 2): 89% | cell proliferation ([6]; 24h, 100 µM, Repeat No 1): 82% | cell proliferation ([6]; 24h, 100 µM, Repeat No 2): 89% | cell proliferation ([6]; 48h, 10 µM, Repeat No 1): 76% | cell proliferation ([6]; 48h, 10 µM, Repeat No 2): 79% | cell proliferation ([6]; 48h, 25 µM, Repeat No 1): 82% | cell proliferation ([6]; 48h, 25 µM, Repeat No 2): 89% | cell proliferation ([6]; 48h, 50 µM, Repeat No 1): 85% | cell proliferation ([6]; 48h, 50 µM, Repeat No 2): 84% | cell proliferation ([6]; 48h, 75 µM, Repeat No 1): 77% | cell proliferation ([6]; 48h, 75 µM, Repeat No 2): 71% | cell proliferation ([6]; 48h, 100 µM, Repeat No 1): 81% | cell proliferation ([6]; 48h, 100 µM, Repeat No 2): 93%
